Source: patent publication US10556872B2, “Fatty acid synthase inhibitors and methods of use” (Hampton University, priority 2017, dated 2020)

Assays:
Type in all cases: cell-based
[1] = test system: MDA-MB-231 breast cancer cells; assay: MTT assay, cell viability of MDA-MB-231 breast cancer cells; settings: MDA-MB-231 cells
Description: (§1) Antiproliferative effect of FAS inhibitors on MCF-7 cells was determined by performing MTT assay. Roughly, 10,000 cells per well were plated in 96-well cell culture microplate (Costar, USA) and incubated overnight in full media (DMEM containing 10% FBS) for cells to adhere to the plate. Cells were then treated with various concentrations of inhibitors and vehicle for 24 hrs in serum free media. Cell viability was evaluated by the MTT (Sigma-Aldrich, St. Louis, Mont.) assay. The absorbance of solubilized formazan was read at 570 nm using ELISA reader (Bio-TEK, Synergy-1).
(§2) We treated H460 lung cancer cells, MDA-MB-231 breast cancer cells, and PC-3 prostate cancer cells with the FAS inhibitor, Compound 1A.

H460 lung cancer cells = assay: MTT assay, cell viability of H460 lung cancer cells
Description: as §1, §2

[2] = test system: PC-3 prostate cancer cells; assay: MTT assay, cell viability of PC-3 prostate cancer cells; settings: PC-3 cells
Description: as §1, with “Cells were then treated with various concentrations of inhibitors and vehicle for 24 hrs in serum free media.” left out
as §2

[3] = test system: MCF-7 breast cancer cells; assay: MTT assay, cell viability of MCF-7 breast cancer cells; settings: Homo sapiens, MCF7; MCF-7 cells, 24 hours of treatment
Description: An MTT assay was performed with the FAS inhibiting compounds of Formulae II, III, IV and V (e.g., Compound 1A) on MCF-7 breast cancer cells, with an IC50 of about […] after 24 hours of treatment. The results are illustrated in FIG. 2.
as §1

**Q.** How did the “anticancer effect (MTT assay), fragment alone” value (“anticancer effect (MTT assay)” below) [1] turn out when O=C(CCn1cc(Br)c(=O)[nH]c1=O)OCCO [5-Bromouracil ester, 2-Hydroxyethyl3-(5-bromo-2,4-dioxo-3,4-dihydropirimidin-1(2H)-yl)propanoate] was run?
**A.** The value was “no anticancer effect”.

**Q.** And the “anticancer effect (MTT assay)” value (H460 lung cancer cells)?
**A.** Its value is “no anticancer effect”.

**Q.** What about the “anticancer effect (MTT assay)” value [2] of the same compound?
**A.** The value was “no anticancer effect”.

**Q.** O=c1[nH]cc(Br)c(=O)[nH]1 [5-Bromouracil] was tested. Which “anticancer effect (MTT assay)” value [1] did it give?
**A.** The value was “no anticancer effect”.

**Q.** What about the “anticancer effect (MTT assay)” value (H460 lung cancer cells) of the same compound?
**A.** Its value is “no anticancer effect”.

**Q.** And the “anticancer effect (MTT assay)” value [2]?
**A.** Its value is “no anticancer effect”.

**Q.** CCCCCCCCCCCCCCCCOC(=O)CCn1cc(Br)c(=O)[nH]c1=O [Compound 1A, Hexadecyl 3-(5-bromo-2,4-dioxo-3,4-dihydropyrimidin-1(2H)-yl)propanoate] was tested. Which “cell viability (MTT)” value ([1]; 24-hr treatment (FIG. 5: 10 μM)) did it give?
**A.** Its value is “significantly reduced the viability”.

**Q.** What about the “cell viability (MTT)” value (H460 lung cancer cells; 24-hr treatment (FIG. 4: 10 μM)) of the same compound?
**A.** Its value is “significantly reduced the viability”.

**Q.** And the “cell viability (MTT)” value ([2]; 72-hr treatment (FIG. 6B: 10 μM))?
**A.** The value was “reduced the viability”.

**Q.** What about the IC50 [3] of the same compound?
**A.** The IC50 was roughly 10 µM.
